Reference: PubChem BioAssay (NCI)
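Five concentrations, 48 hours, 96-well plates. GI50 = concentration required for 50% inhibition of growth. TGI: concentration producing complete growth inhibition.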

Key:
Assay in all cases: growth of human tumour cells (NCI), 48 h
UACC-62 melanoma = test system: UACC-62 melanoma
MALME-3M melanoma = test system: MALME-3M melanoma
SK-MEL-28 melanoma = test system: SK-MEL-28 melanoma
MCF7 breast = test system: MCF7 breast
HCC-2998 colon = test system: HCC-2998 colon
PC-3 prostate = test system: PC-3 prostate
OVCAR-4 ovarian = test system: OVCAR-4 ovarian
UACC-257 melanoma = test system: UACC-257 melanoma
MDA-MB-435 = test system: MDA-MB-435
SR leukemia = test system: SR leukemia
OVCAR-5 ovarian = test system: OVCAR-5 ovarian
SK-MEL-5 melanoma = test system: SK-MEL-5 melanoma
SK-OV-3 ovarian = test system: SK-OV-3 ovarian
A498 renal = test system: A498 renal
HT29 colon = test system: HT29 colon
HL-60(TB) leukemia = test system: HL-60(TB) leukemia
T-47D breast = test system: T-47D breast
CCRF-CEM leukemia = test system: CCRF-CEM leukemia
MDA-MB-231 breast = test system: MDA-MB-231 breast
MOLT-4 leukemia = test system: MOLT-4 leukemia
UO-31 renal = test system: UO-31 renal
U251 CNS = test system: U251 CNS
RXF 393 renal = test system: RXF 393 renal
NCI-H226 lung = test system: NCI-H226 lung
SN12C renal = test system: SN12C renal
IGROV1 ovarian = test system: IGROV1 ovarian
NCI/ADR-RES ovarian = test system: NCI/ADR-RES ovarian
SW-620 colon = test system: SW-620 colon
KM12 colon = test system: KM12 colon
EKVX NSCLC = test system: EKVX NSCLC
HOP-92 NSCLC = test system: HOP-92 NSCLC
RPMI-8226 leukemia = test system: RPMI-8226 leukemia
CAKI-1 renal = test system: CAKI-1 renal
BT-549 breast = test system: BT-549 breast
HOP-62 NSCLC = test system: HOP-62 NSCLC
COLO 205 colon = test system: COLO 205 colon
786-0 renal = test system: 786-0 renal
K-562 leukemia = test system: K-562 leukemia
OVCAR-8 ovarian = test system: OVCAR-8 ovarian
SNB-19 CNS = test system: SNB-19 CNS
SNB-75 CNS = test system: SNB-75 CNS
M14 melanoma = test system: M14 melanoma
OVCAR-3 ovarian = test system: OVCAR-3 ovarian
LOX IMVI melanoma = test system: LOX IMVI melanoma
A549 NSCLC = test system: A549 NSCLC
SF-295 CNS = test system: SF-295 CNS
HS 578T breast = test system: HS 578T breast
SF-268 CNS = test system: SF-268 CNS
NCI-H522 lung = test system: NCI-H522 lung
ACHN renal = test system: ACHN renal
SK-MEL-2 melanoma = test system: SK-MEL-2 melanoma
HCT-15 colon = test system: HCT-15 colon
TK-10 renal = test system: TK-10 renal
SF-539 CNS = test system: SF-539 CNS
DU-145 prostate = test system: DU-145 prostate
HCT-116 colon = test system: HCT-116 colon
NCI-H23 lung = test system: NCI-H23 lung
NCI-H460 lung = test system: NCI-H460 lung

SMILES: CN1C(=O)N(C)C2C1NN=c1s/c(=C\c3ccc(Cl)cc3Cl)c(=O)n12 (stereo not given)
- GI50 (UACC-62 melanoma): 70.9 nM
- TGI (UACC-62 melanoma): > 65200 nM
- GI50 (MALME-3M melanoma): 1210 nM
- TGI (MALME-3M melanoma): > 81600 nM
- GI50 (SK-MEL-28 melanoma): 4260 nM
- TGI (SK-MEL-28 melanoma): > 94600 nM
- GI50 (MCF7 breast): 45 nM
- TGI (MCF7 breast): > 48300 nM
- GI50 (HCC-2998 colon): 281 nM
- TGI (HCC-2998 colon): 15500 nM
- GI50 (PC-3 prostate): 167 nM
- TGI (PC-3 prostate): > 100000 nM
- GI50 (OVCAR-4 ovarian): 1660 nM
- TGI (OVCAR-4 ovarian): > 78900 nM
- GI50 (UACC-257 melanoma): 12200 nM
- TGI (UACC-257 melanoma): > 100000 nM
- GI50 (MDA-MB-435): 33.3 nM
- TGI (MDA-MB-435): 2110 nM
- GI50 (SR leukemia): 55.7 nM
- TGI (SR leukemia): > 100000 nM
- GI50 (OVCAR-5 ovarian): 601 nM
- TGI (OVCAR-5 ovarian): > 100000 nM
- GI50 (SK-MEL-5 melanoma): 167 nM
- TGI (SK-MEL-5 melanoma): 1780 nM
- GI50 (SK-OV-3 ovarian): 754 nM
- TGI (SK-OV-3 ovarian): > 100000 nM
- GI50 (A498 renal): 67 nM
- TGI (A498 renal): 653 nM
- GI50 (HT29 colon): 117 nM
- TGI (HT29 colon): > 100000 nM
- GI50 (HL-60(TB) leukemia): 264 nM
- GI50 (T-47D breast): 57.6 nM
- TGI (T-47D breast): > 100000 nM
- GI50 (CCRF-CEM leukemia): 262 nM
- TGI (CCRF-CEM leukemia): > 100000 nM
- GI50 (MDA-MB-231 breast): 479 nM
- TGI (MDA-MB-231 breast): 19600 nM
- GI50 (MOLT-4 leukemia): 363 nM
- TGI (MOLT-4 leukemia): > 100000 nM
- GI50 (UO-31 renal): 892 nM
- TGI (UO-31 renal): > 71800 nM
- GI50 (U251 CNS): 192 nM
- TGI (U251 CNS): > 100000 nM
- GI50 (RXF 393 renal): 86.2 nM
- TGI (RXF 393 renal): 925 nM
- GI50 (NCI-H226 lung): 623 nM
- TGI (NCI-H226 lung): > 100000 nM
- GI50 (SN12C renal): 422 nM
- TGI (SN12C renal): > 100000 nM
- GI50 (IGROV1 ovarian): 326 nM
- TGI (IGROV1 ovarian): > 50100 nM
- GI50 (NCI/ADR-RES ovarian): 130 nM
- TGI (NCI/ADR-RES ovarian): 18100 nM
- GI50 (SW-620 colon): 109 nM
- TGI (SW-620 colon): > 100000 nM
- GI50 (KM12 colon): 134 nM
- TGI (KM12 colon): > 75400 nM
- GI50 (EKVX NSCLC): 425 nM
- TGI (EKVX NSCLC): > 100000 nM
- GI50 (HOP-92 NSCLC): 406 nM
- TGI (HOP-92 NSCLC): 79400 nM
- GI50 (RPMI-8226 leukemia): 364 nM
- TGI (RPMI-8226 leukemia): 16300 nM
- GI50 (CAKI-1 renal): 60.8 nM
- TGI (CAKI-1 renal): > 62300 nM
- GI50 (BT-549 breast): 264 nM
- TGI (BT-549 breast): 12800 nM
- GI50 (HOP-62 NSCLC): 116 nM
- TGI (HOP-62 NSCLC): 30200 nM
- GI50 (COLO 205 colon): 95.1 nM
- TGI (COLO 205 colon): 2580 nM
- GI50 (786-0 renal): 703 nM
- TGI (786-0 renal): > 48800 nM
- GI50 (K-562 leukemia): 47.3 nM
- TGI (K-562 leukemia): > 50700 nM
- GI50 (OVCAR-8 ovarian): 399 nM
- TGI (OVCAR-8 ovarian): > 100000 nM
- GI50 (SNB-19 CNS): 339 nM
- TGI (SNB-19 CNS): > 100000 nM
- GI50 (SNB-75 CNS): 27.4 nM
- TGI (SNB-75 CNS): 2320 nM
- GI50 (M14 melanoma): 167 nM
- TGI (M14 melanoma): > 37900 nM
- GI50 (OVCAR-3 ovarian): 104 nM
- TGI (OVCAR-3 ovarian): 11200 nM
- GI50 (LOX IMVI melanoma): 159 nM
- TGI (LOX IMVI melanoma): > 100000 nM
- GI50 (A549 NSCLC): 243 nM
- TGI (A549 NSCLC): > 100000 nM
- GI50 (SF-295 CNS): 57.9 nM
- TGI (SF-295 CNS): 15300 nM
- GI50 (HS 578T breast): 173 nM
- TGI (HS 578T breast): > 92600 nM
- GI50 (SF-268 CNS): 1660 nM
- TGI (SF-268 CNS): > 100000 nM
- GI50 (NCI-H522 lung): 95.8 nM
- TGI (NCI-H522 lung): > 57800 nM
- GI50 (ACHN renal): 236 nM
- TGI (ACHN renal): > 100000 nM
- GI50 (SK-MEL-2 melanoma): 11700 nM
- TGI (SK-MEL-2 melanoma): > 100000 nM
- GI50 (HCT-15 colon): 88.2 nM
- TGI (HCT-15 colon): > 100000 nM
- GI50 (TK-10 renal): 10200 nM
- TGI (TK-10 renal): > 92400 nM
- GI50 (SF-539 CNS): 131 nM
- TGI (SF-539 CNS): 3250 nM
- GI50 (DU-145 prostate): 334 nM
- TGI (DU-145 prostate): > 20500 nM
- GI50 (HCT-116 colon): 131 nM
- TGI (HCT-116 colon): > 40200 nM
- GI50 (NCI-H23 lung): 370 nM
- TGI (NCI-H23 lung): 52900 nM
- GI50 (NCI-H460 lung): 199 nM
- TGI (NCI-H460 lung): > 94300 nM
